Test [1] relates to Human osteosarcoma (Saos-2) cells. Briefly: MTT viability assay, Saos-2. The test is classed as cell-based. To be noted: 10 nm etoposide, 72 hours. Here is the method:
Human osteosarcoma (Saos-2) cells were purchased from the American Tissue Culture Collection and maintained in McCoy's 5A medium containing 1.5 mM L-glutamine and 2200 mg/L sodium bicarbonate. Media was supplemented with 1% penicillin, streptomycin and 15% foetal bovine serum (FBS).
(§1) Stock solutions of conditioned media were prepared by dissolving glass particles (from Example 1-3) in complete McCoy's 5A medium to treat Saos-2 cells and Clonetics OGM Osteoblast complete growth media to treat osteoblasts.
(§2) Stock solutions were prepared at a concentration of 10 mg/ml and left to incubate in a shaker incubator at 250 rpm at 37° C. for 24 hours. Following the 24 hour incubation period, stock solutions were filtered using 0.2 micron syringe filter. 3 ml samples were excluded to record stock solution pH values following glass dissolution.
(§3) Cell cytotoxicity was analysed using MTT viability assay (Thermo Fisher), where 5000 cells per well of both Saos-2 and NHOst cells were cultured using conditioned media containing 10 mg/ml respective glass compositions (Examples 1-3), for a period of 72 hours. […] Metabolically active cells reduce MTT to formazan and after formazan extraction the optical density was measured using a spectrophotometer (at 570 nm). […]

Test [2] relates to Human osteoblasts (NHOst). Briefly: MTT viability assay, NHOst. Type of test: cell-based. To be noted: 10 nm etoposide, 72 hours. Here is the method: Human osteoblasts (NHOst) were purchased from Lonza and cultured in Clonetics OGM Osteoblast growth media supplemented with 10% FBS, 1% L-glutamine and 1% penicillin, streptomycin. Both cell lines were maintained at 37° C. in a humidified atmosphere of 5% CO2/95% air.
as §1, §2, §3

Consider one molecule from patent US11311646B2, “Therapeutic material” (ASTON UNIVERSITY, priority 2016, dated 2022).

Molecules are shown by their SMILES.

As for `COc1cc([C@@H]2c3cc4c(cc3[C@@H](O[C@@H]3O[C@@H]5CO[C@@H](C)O[C@H]5[C@H](O)[C@H]3O)[C@H]3COC(=O)[C@H]23)OCO4)cc(OC)c1O` [etoposide, Etoposide], the “Saos-2 cell death, positive control” value in test [1] is recorded as “inducer of cell death (p<0.0001)”. In addition, the “NHOst cell death, positive control” value in test [2] is reported as “inducer of cell death (p<0.0001)”.
